The results in this text go back to ChEMBL document CHEMBL3217528, “Bicyclic imidazole-4-one derivatives: a new class of antagonists for the orphan G protein-coupled receptors GPR18 and GPR55” (Medchemcomm, 2014).

Test [1] addresses T1, N-arachidonyl glycine receptor (Homo sapiens, UniProt Q14330).
T1 sequence (Q14330 whole entry): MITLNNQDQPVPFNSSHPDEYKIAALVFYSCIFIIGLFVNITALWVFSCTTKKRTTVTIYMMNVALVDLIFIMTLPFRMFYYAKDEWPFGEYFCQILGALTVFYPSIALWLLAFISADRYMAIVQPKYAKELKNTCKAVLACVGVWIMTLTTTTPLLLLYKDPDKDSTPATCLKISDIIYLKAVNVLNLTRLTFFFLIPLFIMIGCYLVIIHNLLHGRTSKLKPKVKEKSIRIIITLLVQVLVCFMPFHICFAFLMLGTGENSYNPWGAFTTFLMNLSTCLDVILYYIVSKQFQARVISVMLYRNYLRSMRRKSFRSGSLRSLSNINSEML
Kind of test: Agonist activity at human GPR18 expressed in CHO cells assessed as induction of beta-arrestin recruitment by beta-galactosidase enzyme fragment complementation method. The test is classed as cell-based. (Recruitment of arrestin is a read-out of receptor activation apart from second messengers.)

Test [2] concerns the target T1, N-arachidonyl glycine receptor. Put plainly: Agonist activity at human GPR18 expressed in […] cells by MAP kinase assay. The test is classed as cell-based.
Test [3] addresses T2, G-protein coupled receptor 55 (Homo sapiens, UniProt Q9Y2T6). Put plainly: Agonist activity at human GPR55 expressed in CHO cells assessed as induction of LPI-induced beta-arrestin recruitment by beta-galactosidase enzyme fragment complementation method. Type of test: cell-based.
Test [4] has as its target T2, G-protein coupled receptor 55. Put plainly: Agonist activity at human GPR55 expressed in HEK293 cells assessed as increase in oscillation Ca2+ transients by fura-2 dye based fluorescence analysis. The test is classed as functional, cell-based.
Test [5] deals with T3, Cannabinoid receptor 1 (Homo sapiens, UniProt P21554). Kind of test: Intrinsic activity at human recombinant CB1 receptor expressed in HEK293 cell membranes assessed as stimulation of [35S]GTPgammaS binding at 10 uM by liquid scintillation counting method relative to CP55,940. The test is classed as functional. (In general: Binding of GTPγS marks nucleotide exchange on a G protein.)
T3 sequence (P21554 whole entry): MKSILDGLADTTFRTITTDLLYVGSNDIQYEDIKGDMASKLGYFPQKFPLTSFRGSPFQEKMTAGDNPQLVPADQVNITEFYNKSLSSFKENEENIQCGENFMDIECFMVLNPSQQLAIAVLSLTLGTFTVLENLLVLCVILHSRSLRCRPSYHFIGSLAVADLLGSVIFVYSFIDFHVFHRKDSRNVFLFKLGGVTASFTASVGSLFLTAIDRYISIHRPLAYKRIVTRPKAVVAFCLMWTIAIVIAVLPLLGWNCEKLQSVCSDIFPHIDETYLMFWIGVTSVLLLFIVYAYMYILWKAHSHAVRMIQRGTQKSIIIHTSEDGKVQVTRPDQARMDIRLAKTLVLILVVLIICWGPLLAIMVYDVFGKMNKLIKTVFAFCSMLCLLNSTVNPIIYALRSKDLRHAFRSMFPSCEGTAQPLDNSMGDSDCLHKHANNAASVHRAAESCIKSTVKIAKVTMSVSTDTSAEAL

Test [6] has as its target Cannabinoid receptor 1 (Rattus norvegicus) (UniProt P20272). Put plainly: Intrinsic activity at CB1 receptor in rat brain cortical membranes assessed as stimulation of [35S]GTPgammaS binding at 10 uM by liquid scintillation counting method relative to CP55,940. Type of test: functional, cell membranes.
Test [7] addresses T4, Cannabinoid receptor 2 (Homo sapiens, UniProt P34972). Put plainly: Agonist activity at human recombinant CB2 receptor expressed in CHO-K1 cell membranes assessed effect on forskolin-induced cAMP accumulation at 10 uM. The test is classed as functional, cell-based. On the technique in general: cAMP levels reflect the balance of adenylyl cyclase and phosphodiesterase activity.

Test [8] concerns the target T3, Cannabinoid receptor 1. Kind of test: Agonist activity at human recombinant CB1 receptor expressed in CHO-K1 cell membranes assessed effect on forskolin-induced cAMP accumulation at 10 uM. The test is classed as functional, cell-based.
The target in test [9] is T2, G-protein coupled receptor 55. Kind of test: Agonist activity at human GPR55 expressed in CHO cells assessed as induction of LPI-induced beta-arrestin recruitment by beta-galactosidase enzyme fragment complementation method relative to LPI. Type of test: cell-based. More on the design: concentration or dose not given beside the values.
The target in test [10] is T5, N-arachidonyl glycine receptor (Homo sapiens) (UniProt Q14330).
T5 sequence (whole entry): T1 sequence (Q14330 whole entry)
Put plainly: Agonist activity at human GPR18 expressed in CHO cells assessed as induction of beta-arrestin recruitment by beta-galactosidase enzyme fragment complementation method relative to delta9-THC. The test is classed as cell-based. Also on record: concentration or dose not given beside the values.

Test [11] is filed under the species Rattus norvegicus. Kind of test: Displacement of [3H]diazepam from GABAA receptor in rat brain cortical membranes at 10 uM. Type of test: cell membranes.
The nature of test [12]: Displacement of [3H]diazepam from GABAA receptor in rat brain cortical membranes. The test is classed as cell membranes.
Test [13] deals with T2, G-protein coupled receptor 55. Kind of test: Allosteric antagonist activity against human GPR55 expressed in CHO cells assessed as induction of rightward shift of concentration response curve of LPI-induced beta-arrestin recruitment at 10 uM by beta-galactosidase enzyme fragment complementation method. The test is classed as cell-based.
Test [14] shares this target. Kind of test: Inverse agonist activity against human GPR55 expressed in CHO cells assessed as reduction in LPI-induced beta-arrestin recruitment at 30 uM by beta-galactosidase enzyme fragment complementation method. The test is classed as cell-based.
Test [15] concerns the target T4, Cannabinoid receptor 2. Put plainly: Displacement of [3H]CP55,940 from human recombinant CB2 receptor expressed in HEK293 cells at 10 uM. Type of test: cell-based.
For test [16], the target named is T4, Cannabinoid receptor 2. Kind of test: Displacement of [3H]CP55,940 from human recombinant CB2 receptor expressed in HEK293 cells. Type of test: cell-based.
For test [17], the target named is T3, Cannabinoid receptor 1. Put plainly: Displacement of [3H]CP55,940 from human recombinant CB1 receptor expressed in CHO-K1 cells at 10 uM. Type of test: cell-based.
For test [18], the target named is T3, Cannabinoid receptor 1. Put plainly: Displacement of [3H]CP55,940 from human recombinant CB1 receptor expressed in CHO-K1 cells. Type of test: cell-based.
Test [19] addresses T2, G-protein coupled receptor 55. Kind of test: Antagonist activity against human GPR55 expressed in CHO cells assessed as reduction in LPI-induced beta-arrestin recruitment by beta-galactosidase enzyme fragment complementation method. Type of test: cell-based.
Test [20] deals with T5, N-arachidonyl glycine receptor (Homo sapiens). Put plainly: Antagonist activity against human GPR18 expressed in CHO cells assessed as reduction in delta9-THC-induced beta-arrestin recruitment at 10 uM by beta-galactosidase enzyme fragment complementation method. Type of test: cell-based.
Test [21] deals with T1, N-arachidonyl glycine receptor. Kind of test: Antagonist activity against human GPR18 expressed in CHO cells assessed as reduction in delta9-THC-induced beta-arrestin recruitment by beta-galactosidase enzyme fragment complementation method. Type of test: cell-based.
The target of test [22] is T6, G-protein coupled receptor 35 (Homo sapiens, UniProt Q9HC97). Put plainly: Antagonist activity at human GPR35 assessed as reduction of zaprinast-induced beta-arrestin recruitment by beta-galactosidase enzyme fragment complementation method relative to untreated control. As to conditions: concentration not given here. More on the design: concentration or dose not given beside the values.
T6 sequence (Q9HC97 whole entry, the tested form may be a part): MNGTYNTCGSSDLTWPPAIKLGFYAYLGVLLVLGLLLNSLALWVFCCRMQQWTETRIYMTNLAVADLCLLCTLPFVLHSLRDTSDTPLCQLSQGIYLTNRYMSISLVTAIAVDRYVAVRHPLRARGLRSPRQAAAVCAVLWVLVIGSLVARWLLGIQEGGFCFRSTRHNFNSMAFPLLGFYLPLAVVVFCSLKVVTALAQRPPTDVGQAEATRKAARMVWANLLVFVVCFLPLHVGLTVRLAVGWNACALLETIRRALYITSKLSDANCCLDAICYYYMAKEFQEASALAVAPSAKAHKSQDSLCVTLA

In test [23] the target is T6, G-protein coupled receptor 35. Kind of test: Antagonist activity at human GPR35 assessed as reduction of zaprinast-induced beta-arrestin recruitment by beta-galactosidase enzyme fragment complementation method.
For test [24] the target is unchanged. Put plainly: Agonist activity at human GPR35 assessed as induction of beta-arrestin recruitment by beta-galactosidase enzyme fragment complementation method relative to zaprinast. More on the design: concentration or dose not given beside the values.
Test [25] shares this target. Kind of test: Agonist activity at human GPR35 assessed as induction of beta-arrestin recruitment by beta-galactosidase enzyme fragment complementation method.
Test [26] deals with Cannabinoid receptor 1 (Rattus norvegicus) (UniProt P20272). Put plainly: Displacement of [3H]CP55,940 from CB1 receptor in rat brain cortical membranes at 10 uM. Type of test: cell membranes.
Chain of Cannabinoid receptor 1 (Rattus norvegicus) (P20272 whole entry): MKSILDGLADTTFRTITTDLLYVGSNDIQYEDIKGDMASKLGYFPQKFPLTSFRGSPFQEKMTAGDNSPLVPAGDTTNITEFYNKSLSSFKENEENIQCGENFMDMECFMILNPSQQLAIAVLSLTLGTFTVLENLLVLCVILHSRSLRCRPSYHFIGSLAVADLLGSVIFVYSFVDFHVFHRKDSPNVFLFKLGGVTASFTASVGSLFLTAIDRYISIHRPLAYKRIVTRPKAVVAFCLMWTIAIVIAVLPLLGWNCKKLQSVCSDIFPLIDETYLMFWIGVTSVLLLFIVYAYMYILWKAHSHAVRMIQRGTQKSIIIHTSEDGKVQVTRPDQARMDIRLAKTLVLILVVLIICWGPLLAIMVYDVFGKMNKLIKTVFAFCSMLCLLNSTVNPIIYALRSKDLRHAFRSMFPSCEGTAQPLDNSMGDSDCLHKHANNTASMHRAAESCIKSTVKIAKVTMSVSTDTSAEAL
Test [27] concerns the target Cannabinoid receptor 1 (Rattus norvegicus, UniProt P20272). Kind of test: Displacement of [3H]CP55,940 from CB1 receptor in rat brain cortical membranes. Type of test: cell membranes.
Test [28] has as its target T4, Cannabinoid receptor 2. Put plainly: Intrinsic activity at human recombinant CB2 receptor expressed in HEK293 cell membranes assessed as stimulation of [35S]GTPgammaS binding at 10 uM by liquid scintillation counting method relative to CP55,940. The test is classed as functional.
Test [29] deals with T2, G-protein coupled receptor 55. Put plainly: Inverse agonist activity against human GPR55 expressed in CHO cells assessed as reduction in LPI-induced beta-arrestin recruitment at 10 uM by beta-galactosidase enzyme fragment complementation method. Type of test: cell-based.
Test [30] has the same target. Put plainly: Antagonist activity against human GPR55 expressed in CHO cells assessed as reduction in LPI-induced beta-arrestin recruitment at 10 uM by beta-galactosidase enzyme fragment complementation method. Type of test: cell-based.

Activity calls are given as the source filed them. The rule behind the calls is not given here.

Chain of Cannabinoid receptor 1 (Rattus norvegicus, UniProt P20272) (P20272 whole entry): as above
T4 sequence (P34972 whole entry): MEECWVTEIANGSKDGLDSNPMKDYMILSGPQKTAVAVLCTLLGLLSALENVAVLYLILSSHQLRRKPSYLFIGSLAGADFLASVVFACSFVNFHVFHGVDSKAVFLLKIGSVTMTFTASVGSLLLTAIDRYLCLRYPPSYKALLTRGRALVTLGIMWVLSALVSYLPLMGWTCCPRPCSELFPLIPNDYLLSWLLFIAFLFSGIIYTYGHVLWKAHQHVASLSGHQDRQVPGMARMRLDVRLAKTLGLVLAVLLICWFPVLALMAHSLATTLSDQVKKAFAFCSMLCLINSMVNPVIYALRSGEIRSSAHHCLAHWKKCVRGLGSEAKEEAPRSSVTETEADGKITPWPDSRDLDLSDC
T2 sequence (Q9Y2T6 whole entry, the tested form may be a part): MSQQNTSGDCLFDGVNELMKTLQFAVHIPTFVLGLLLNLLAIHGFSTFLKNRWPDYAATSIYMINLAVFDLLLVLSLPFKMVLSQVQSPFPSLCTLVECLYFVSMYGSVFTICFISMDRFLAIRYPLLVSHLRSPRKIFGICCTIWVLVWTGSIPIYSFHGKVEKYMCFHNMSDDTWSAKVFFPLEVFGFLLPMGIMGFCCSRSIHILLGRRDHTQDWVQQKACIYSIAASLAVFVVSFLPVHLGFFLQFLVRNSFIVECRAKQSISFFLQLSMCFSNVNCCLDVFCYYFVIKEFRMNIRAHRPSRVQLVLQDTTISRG

As a reminder, the EC50 is the concentration that produces a half-maximal response. `Cc1c(C(=O)NN2CCCCC2)nn(-c2ccc(Cl)cc2Cl)c1-c1ccc(Cl)cc1` [RIMONABANT]: the half-maximal effective concentration (EC50) in test [1] is 10.1 µM.

On to `CCCCCc1cc(O)c2c(c1)OC(C)(C)[C@@H]1CCC(C)=C[C@@H]21` [DRONABINOL], for which the EC50 stood at 0.96 µM in test [2] and 14.2 µM in test [3].

`Cc1c(C(=O)NN2CCCCC2)nn(-c2ccc(Cl)cc2Cl)c1-c1ccc(I)cc1`: the concentration giving a half-maximal response (EC50) in test [4] came out at 0.63 µM.

For the compound `Cc1c(C(=O)NN2CCOCC2)nn(-c2ccc(Cl)cc2Cl)c1-c1ccc(I)cc1`, the Intrinsic activity in [5] is -80%; in test [6] it was -42%. Moreover, the outcome in [7] and in test [8] was inactive. Besides, the half-maximal effective concentration (EC50) in test [4] came out at 13.6 µM.

Take `CCCCCCC(C)(C)c1ccc([C@@H]2C[C@H](O)CC[C@H]2CCCO)c(O)c1` [CP-55940]: the outcome in [7] and in [8] was Active. Also, the EC50 in test [3] was found to be 1.61 µM; in [1], 5.99 µM.

Usually inhibition stands for the drop in the measured response relative to a control, in per cent. A word on the Ki: it is the dissociation constant of the complex between target and ligand, obtained from inhibition or displacement. What is called IC50 is the concentration needed to halve the response being measured. In the case of `O=C1/C(=C/c2ccc(F)cc2F)N=C2SCCCN12`, the Activity worked out at 0% in test [9] and 11% in test [10]. Moreover, the inhibition in [11] is 34%; in [15], 0%; in test [17], 13%; in test [20], 6%. The Ki in test [12], in test [16] and in test [18] was more than 10 µM in each case. The Allosteric antagonist activity result in test [13] is “Active”. In addition, the inhibition result in test [14] is “Active”. The IC50 is 3.46 µM in test [19] and more than 10 µM in [21].

As for `O=C1/C(=C/c2ccccc2Cl)N=C2SCCCN12`, the Activity is 27% in [9], 20% in test [10] and -22% in [24]. For the same compound, the Ki in test [12] was 4.15 µM; in [27] it was more than 10 µM; in [16], more than 10 µM; in test [18], more than 10 µM. In addition, the inhibition in test [22] came to 49%; in [26] it was 5%; in test [15], 21%; in test [17] it was 0%; in test [20], 6%. Further, the half-inhibitory concentration (IC50) is not below 10 µM in [23], 5.09 µM in test [19] and more than 10 µM in [21]. For the same compound, the 50% effective concentration (EC50) in test [25] is more than 10 µM. In addition, the Allosteric antagonist activity entry in [13] was “Active”.

Take `O=C1/C(=C/c2cccc(OCc3ccc(Cl)cc3)c2)N=C2SCCCCN12`: the Intrinsic activity was -59% in [28], -40% in [5] and -15% in test [6]. In addition, the Activity in test [9] stood at 70%; in [10], 0%; in test [24], 6%. The inhibitory constant (Ki) in [12] is more than 10 µM; in test [27], 0.82 µM; in [16], 4.15 µM; in test [18], 0.25 µM. Also, the figures for the inhibition in test [22] and in [20] were 1% and 31%, respectively. The 50% inhibitory concentration (IC50) in test [23] and in test [21] was more than 10 µM throughout. The concentration giving a half-maximal response (EC50) in test [25] is more than 10 µM; in test [3] it was 10.7 µM. Besides, the outcome in test [8] was inactive.

On to `CCCCC/C=C\C/C=C\C/C=C\C/C=C\CCCC(=O)O[C@H](CO)COP(=O)(O)O[C@@H]1[C@@H](O)[C@H](O)[C@@H](O)[C@H](O)[C@@H]1O`, for which, in test [3], the half-maximal effective concentration (EC50) was 1 µM. Further, the inhibition in [15] is 0%; in test [17], 0%; in test [20], 15%. For the same compound, the Ki in [16] and in [18] was more than 10 µM in each case. For the same compound, in test [21], the 50% inhibitory concentration (IC50) is more than 10 µM.

With `O=C1/C(=C/c2cccc(F)c2F)N=C2SCCCN12`, the Activity in [9] is 0%; in [10], 4%; in test [24], -4%. Further, the inhibition worked out at 24% in test [11]; 17% in test [22]; 0% in test [15]; 7% in test [17]; 3% in [20]. Moreover, the inhibitory constant (Ki) in test [12], in [16] and in [18] was more than 10 µM each time. In addition, the half-inhibitory concentration (IC50) in test [23] is more than 10 µM; in [19], 3.15 µM; in test [21], more than 10 µM. Further, in test [25], the EC50 was more than 10 µM. In addition, the Allosteric antagonist activity result in [13] is “Active”. The inhibition result in test [29] is “Active”.

Turning to `O=C1/C(=C/c2cccc(Cl)c2)N=C2SCCCN12`, the Activity in test [9] was 9%; in test [10], 0%. In addition, the inhibition in test [11] stood at 57%; in test [26] it was 6%; in [15], 2%; in test [17] it was 30%; in [30], 42%; in test [20], 14%. The Ki in test [12] is 10 µM; in test [27], more than 10 µM; in test [16], more than 10 µM; in [18] it was more than 10 µM. Moreover, the IC50 in test [19] was not below 10 µM; in [21] it was more than 10 µM.
